Experimental data from US11634702B2, “Cell signaling pathway activation by local AC electric field” (ARIZONA BOARD OF REGENTS ON BEHALF OF ARIZONA STATE …, priority 2018, dated 2023).

System: EGFR-Ras-ERK signaling pathway in MCF10A cells
Assay: ERK activation by AC EF stimulation (ERKTR reporter) in blocker tests
Format: cell-based

SMILES | effect on ERK activation under AC EF stimulation (BAPTA AM 3 μM) | effect on ERK activation under AC EF stimulation (Trolox 350 μM)
CC(=O)OCOC(=O)CN(CC(=O)OCOC(C)=O)c1ccccc1OCCOc1ccccc1N(CC(=O)OCOC(C)=O)CC(=O)OCOC(C)=O [BAPTA AM] | neither Ca2+ chelator (BAPTA AM, 3 μM, Life Technologies), nor ROS quencher (Trolox, 350 μM, Sigma-Aldrich) could block the EF activation of ERK | 
Cc1c(C)c2c(c(C)c1O)CCC(C)(C(=O)O)O2 (centres unmarked) [Trolox] |  | neither Ca2+ chelator (BAPTA AM, 3 μM, Life Technologies), nor ROS quencher (Trolox, 350 μM, Sigma-Aldrich) could block the EF activation of ERK
